Like-named read-outs stand apart in the source and are kept apart here.
Columns and labels:
[1] = biological target: T1, recombinant human GluN1/GluN2B NMDA receptor (GluN1-4a/GluN2B) (Homo sapiens, UniProt Q05586+Q13224); experiment: whole-cell patch clamp, HEK293; assay type: cell-based; conditions: -60 mV, 1 mM L-glutamate, 100 µM glycine, pH 7.3, steady state; voltage-dependent
T1 construct: gene GRIN1; GluN1-4a and GluN2B co-expressed with GFP in HEK293 cells
Description: whole-cell patch clamp, HEK293 on recombinant human GluN1/GluN2B NMDA receptor (GluN1-4a/GluN2B)

[2] = biological target: T2, hAChE (human recombinant acetylcholinesterase) (Homo sapiens, UniProt P22303); experiment: biochemical; set-up: modified Ellman assay, cholinesterase activity, absorbance at 412 nm
T2 construct: gene ACHE; recombinant enzyme, purchased from Sigma-Aldrich
T2 sequence (P22303 32-614): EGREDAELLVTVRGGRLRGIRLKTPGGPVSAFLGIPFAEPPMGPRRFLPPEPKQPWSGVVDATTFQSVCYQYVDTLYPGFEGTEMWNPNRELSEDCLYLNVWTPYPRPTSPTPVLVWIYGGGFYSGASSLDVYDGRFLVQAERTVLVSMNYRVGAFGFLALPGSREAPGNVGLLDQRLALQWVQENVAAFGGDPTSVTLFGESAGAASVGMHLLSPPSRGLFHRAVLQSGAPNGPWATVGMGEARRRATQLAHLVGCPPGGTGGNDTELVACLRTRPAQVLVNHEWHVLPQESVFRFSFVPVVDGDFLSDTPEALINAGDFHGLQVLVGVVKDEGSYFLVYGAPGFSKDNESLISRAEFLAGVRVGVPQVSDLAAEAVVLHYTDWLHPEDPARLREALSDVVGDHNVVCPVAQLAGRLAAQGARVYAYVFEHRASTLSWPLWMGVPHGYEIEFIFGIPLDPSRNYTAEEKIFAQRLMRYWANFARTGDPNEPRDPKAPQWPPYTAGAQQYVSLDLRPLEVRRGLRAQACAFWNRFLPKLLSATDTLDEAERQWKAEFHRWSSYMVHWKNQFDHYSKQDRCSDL
Experimental: (§1) The inhibitory activities of 5–7 and all the reference compounds were determined using modified Ellman’s method against human recombinant AChE (hAChE, E.C. 3.1.1.7, purchased from Sigma-Aldrich, Prague, Czech Republic) and human plasmatic BChE (hBChE, E.C. 3.1.1.8, purchased from Sigma-Aldrich, Prague, Czech Republic). The results are expressed as IC50 (the concentration of the compound that is required to reduce 50% of cholinesterase activity). Other used compounds – phosphate buffer solution (PBS, pH = 7.4), 5,5’-dithio-bis(2-nitrobenzoic) acid (Ellman’s reagent, DTNB), acetylthiocholine (ATCh) and butyrylthiocholine (BTCh) were also commercially available and were purchased from Sigma-Aldrich (Prague, Czech Republic). During the measurement, 96-well microplates from polystyrene (ThermoFisher Scientific, Waltham, MA, USA) were used. The solutions of corresponding enzyme in PBS were prepared up to final activity 0.002 U/µL. The assay medium (100 µL) consisted of cholinesterase (10 µL), DTNB (20 µL of 0.01 M solution) and PBS (40 µL of 0.1 M solution). The solutions of the tested compounds (10 µL of different concentrations) were pre- incubated for 5 minutes in the assay medium and then solution of substrate (20 µL of 0.01 M ATCh or BTCh iodide solution) was added to initiate the reaction. The increase of absorbance was measured at 412 nm using Multimode microplate reader Synergy 2 (BioTek Inc., Winooski, VT, USA). For the calculation of the resulting measured activity (the percentage of inhibition I) following formula was used: [drawing 1] where ΔAi indicates absorbance change provided by adequate enzyme exposed to corresponding inhibitor and ΔA0 indicates absorbance change when a solution of PBS was added instead of a solution of inhibitor. Software Microsoft Excel (Redmont, WA, USA) and GraphPad Prism version 5.02 for Windows (GraphPad Software, San Diego, CA, USA) were used for the statistical data evaluation. ChEs are enzymes responsible for the hydrolysis and metabolism of various endogenous and exogenous substrates, that are broadly studied in association with disease conditions like myasthenia gravis or AD. The primary attention in the development of AD drugs has been paid to AChE inhibitors. Nevertheless, there is growing interest in nonselective or BChE-selective inhibitors due to the compensatory role of BChE when AChE levels are depleted during the progression of AD [23]. Selective BChE inhibitors may be beneficial for patients in moderate-to-severe stages of AD [23, 24]. […] Accordingly, we assessed the inhibition activities of these novel compounds against human recombinant AChE (hAChE) and human serum BChE (hBChE) following a modified spectrophotometric protocol developed by Ellman et al.. […] Complete data are available in the Supplementary Information (Table S1), including the inhibition percentages for all derivatives. Amiridine hydrochloride (amiridine.HCl) and tacrine (THA) were used as reference compounds. […] Only a superficial structure-activity relationship for AChE inhibition can be drawn from the obtained data. […] The presence of any substituent on the benzothiazole core enhanced anti-AChE activity, with the best-tolerated position for the substituent being 6 for derivatives with halogen atoms (7b-d with bromine or 7g-h with [compound left out]. h

[3] = biological target: T3, hBChE (human serum / plasmatic butyrylcholinesterase) (Homo sapiens, UniProt P06276); experiment: biochemical; set-up: modified Ellman assay, cholinesterase activity, absorbance at 412 nm
T3 construct: gene BCHE; native enzyme from human plasma/serum, purchased from Sigma-Aldrich
T3 sequence (P06276 29-602): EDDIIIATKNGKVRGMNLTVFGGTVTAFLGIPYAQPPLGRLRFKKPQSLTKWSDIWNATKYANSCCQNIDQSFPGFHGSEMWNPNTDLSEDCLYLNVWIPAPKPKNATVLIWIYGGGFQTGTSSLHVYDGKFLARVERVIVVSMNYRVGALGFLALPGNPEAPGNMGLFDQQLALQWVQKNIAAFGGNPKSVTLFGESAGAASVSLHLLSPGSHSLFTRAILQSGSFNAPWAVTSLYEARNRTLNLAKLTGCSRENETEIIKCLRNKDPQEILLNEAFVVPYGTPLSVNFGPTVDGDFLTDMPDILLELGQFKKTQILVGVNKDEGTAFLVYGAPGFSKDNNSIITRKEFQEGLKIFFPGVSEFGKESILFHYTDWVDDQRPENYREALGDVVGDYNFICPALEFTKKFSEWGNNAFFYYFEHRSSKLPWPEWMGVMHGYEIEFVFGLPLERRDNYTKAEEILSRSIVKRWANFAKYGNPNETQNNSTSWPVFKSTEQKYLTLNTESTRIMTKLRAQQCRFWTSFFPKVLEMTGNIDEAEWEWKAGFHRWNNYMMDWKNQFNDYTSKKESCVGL
Experimental: as §1

in vitro [4] = experiment: in vitro; set-up: MTT viability assay, undifferentiated SH-SY5Y cells; conditions: human, undifferentiated sh-sy5y cells, read-out: SH-SY5Y IC50
Experimental: (§2) The cytotoxic profile of 5–7 was carried through the use of the MTT (3-(4,5-dimethylthiazol-2-yl)-2,5-diphenyltetrazolium bromide) assay on human neuroblastoma (SH-SY5Y) and hepatocellular carcinoma (HepG2) cell lines, following established protocols. The cytotoxicity was assessed on SH-SY5Y cells in undifferentiated and in differentiated form. The data obtained from the measurements on the undifferentiated SH-SY5Y and HepG2 cells are summarized in Table 1 for 5c-d, 7c and 7g, as well as for the reference compounds amiridine hydrochloride and THA. Additional data can be found in Supplementary Information (Table S2 and Fig. S1). The both cell lines were cultured according to ECACC recommended conditions and seeded into 96-well plates in 100 µL and density of 8000 per well. For evaluation of cytotoxicity of the differentiated form the SH-SY5Y cells also underwent 9-day differentiation protocol into mature neurons according to Riegerová et al .. The tested compounds were dissolved in DMSO (Sigma Aldrich) or in phosphate buffer saline (PBS, Sigma Aldrich) and subsequently in the growth medium - high glucose Dulbecco’s Modified Eagle’s medium (DMEM; Sigma-Aldrich, D6429). […] Then, the differentiated SH-SY5Y cells were treated with concentrations corresponding to IC50 values obtained from the cytotoxicity measurement using undifferentiated SH-SY5Y cells. Cells were exposed to a tested compound for 24 h. Then the medium was replaced by a medium containing 10 μM of MTT and cells were allowed to produce formazan for another approximately 3 h under surveillance. Thereafter, medium was aspirated and purple crystals of MTT formazan were dissolved in 100 μL DMSO under shaking. Cell viability was assessed spectrophotometrically by the amount of formazan produced. Absorbance was measured at 570 nm with 650 nm reference wavelength on Spark (Tecan Group Ltd, Switzerland). The IC50 value was then calculated from the control-subtracted triplicates using non-linear regression (four parameters) of GraphPad Prism 9 software. Final IC50 and SEM values were obtained as a mean of three independent measurements.

in vitro [5] = experiment: in vitro; set-up: MTT viability assay, HepG2 cells; conditions: human, hepg2 cells; read-out: HepG2 IC50
Experimental: as §2

in vitro [6] = experiment: in vitro; set-up: PAMPA blood-brain barrier permeability, effective permeability Pe; conditions: PAMPA-BBB Pe
Description: page 5 / Table S2. Cytotoxicity profiles of 5–7 on SH-SY5Y cell line and predictions to BBB penetration by PAMPA results. / Pe (10^-6 cm.s^-1)

T1 sequence (Q13224 27-1484, other chains not shown): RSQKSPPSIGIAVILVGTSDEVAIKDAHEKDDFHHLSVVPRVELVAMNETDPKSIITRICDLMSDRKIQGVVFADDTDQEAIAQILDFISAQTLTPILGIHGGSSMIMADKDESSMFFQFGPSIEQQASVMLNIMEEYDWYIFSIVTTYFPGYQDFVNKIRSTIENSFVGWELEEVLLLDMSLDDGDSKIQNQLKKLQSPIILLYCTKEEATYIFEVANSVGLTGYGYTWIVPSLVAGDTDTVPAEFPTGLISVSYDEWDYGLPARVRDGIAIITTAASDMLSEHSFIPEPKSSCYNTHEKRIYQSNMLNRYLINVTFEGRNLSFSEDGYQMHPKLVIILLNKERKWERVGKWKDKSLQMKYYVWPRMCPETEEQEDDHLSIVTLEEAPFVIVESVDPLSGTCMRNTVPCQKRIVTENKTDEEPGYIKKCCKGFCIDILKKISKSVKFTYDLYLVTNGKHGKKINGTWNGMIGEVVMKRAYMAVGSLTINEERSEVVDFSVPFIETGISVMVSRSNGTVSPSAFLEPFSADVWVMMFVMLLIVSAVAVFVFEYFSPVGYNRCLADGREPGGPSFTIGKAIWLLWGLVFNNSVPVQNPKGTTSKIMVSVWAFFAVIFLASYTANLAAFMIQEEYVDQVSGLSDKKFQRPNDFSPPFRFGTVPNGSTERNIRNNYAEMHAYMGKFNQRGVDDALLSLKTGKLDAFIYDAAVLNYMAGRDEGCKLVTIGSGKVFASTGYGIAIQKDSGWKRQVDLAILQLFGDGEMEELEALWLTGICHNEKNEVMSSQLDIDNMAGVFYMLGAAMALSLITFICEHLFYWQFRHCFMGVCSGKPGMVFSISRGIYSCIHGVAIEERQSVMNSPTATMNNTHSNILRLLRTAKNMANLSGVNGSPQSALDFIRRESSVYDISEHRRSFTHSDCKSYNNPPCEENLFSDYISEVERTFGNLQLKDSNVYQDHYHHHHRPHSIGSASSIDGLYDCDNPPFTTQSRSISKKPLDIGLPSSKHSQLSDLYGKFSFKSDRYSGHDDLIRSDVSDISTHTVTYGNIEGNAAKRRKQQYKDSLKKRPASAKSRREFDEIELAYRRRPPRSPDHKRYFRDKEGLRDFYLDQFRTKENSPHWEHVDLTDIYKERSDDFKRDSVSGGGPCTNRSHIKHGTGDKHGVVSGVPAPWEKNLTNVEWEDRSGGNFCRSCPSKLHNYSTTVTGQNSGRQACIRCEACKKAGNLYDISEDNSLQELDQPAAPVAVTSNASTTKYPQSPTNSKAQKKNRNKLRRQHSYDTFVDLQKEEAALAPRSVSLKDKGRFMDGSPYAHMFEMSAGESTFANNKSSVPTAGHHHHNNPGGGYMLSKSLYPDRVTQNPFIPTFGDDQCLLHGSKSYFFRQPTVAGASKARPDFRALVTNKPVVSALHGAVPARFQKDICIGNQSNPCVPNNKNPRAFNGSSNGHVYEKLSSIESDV

In the case of `O=C(CNc1nc2ccc(OC(F)(F)F)cc2s1)Nc1c2c(nc3c1CCC3)CCCC2` [7m, N-{1H,2H,3H,5H,6H,7H,8H-cyclopenta[b]quinolin-9-yl}-2-{[6-(trifluoromethoxy)-1,3-benzothiazol-2-yl]amino}acetamide], the “RI (% inhibition at 30 μM)” value [1] is reported as 63.0 ± 2.6%, the inhibition at 1 µM [2] is reported as 13.3 ± 0.71% and the inhibition at 1 µM [3] is reported as 1.5 ± 0.64%. It also gave a CC50 at 24 h (in vitro [4]) of 29.5 ± 2.3 µM, a CC50 at 24 h (in vitro [5]) of no less than 200 µM and a Papp (in vitro [6]) of 2.54 ± 0.42 ×10⁻⁶ cm/s.

From article doi:10.1101/2024.02.15.580468v1, “Morphing Cholinesterase Inhibitor Amiridine into Multipotent Drugs for the Treatment of Alzheimer’s Disease” (biorxiv, 2024)
